Data published in US20190117653A1, “SYSTEMS AND METHODS FOR TREATING BACTERIAL INFECTION” (priority 2016, published 2019).

Assays:
[1] = system: isolated rabbit Purkinje fibers
[2] = system: QTc interval; test: single-dose ECG study in healthy human volunteers (1.6 and 3.2 mg/kg); type: in vivo; settings: 3.2 mg/kg infused over 30 minutes
Procedure: Based on this, a single-dose ECG-study was conducted in healthy human volunteers, where 1.6 mg/kg and 3.2 mg/kg iclaprim was infused over 30 minutes. […] Maximal increases coincided with Cmax levels and were rapidly reversible. Weight-based dosing with 1.6 mg/kg was thus assessed as acceptable for clinical purposes, whereas weight-based dosing at 3.2 mg/kg was associated with relevant QTc prolongations (>60 msec) and nonspecific T-wave alterations, and was not used for further clinical studies.

[3] = PK of IV iclaprim in moderate hepatic impairment; type: in vivo, human; settings: moderate hepatic impairment (Child-Pugh grade B)
Procedure: For example, the PK profile of 0.8 mg/kg iclaprim administered by IV was investigated in 8 subjects with mild to moderate obesity (body mass index or “BMI” 30-40) and in 8 subjects with severe obesity (BMI>40). […] Linear regression analysis indicated a strong linear relationship between AUC (and Cmax) and BMI. Thus it was clear that the body composition of the subject affected the pharmacokinetics of IV administered iclaprim, with a greater percentage of body fat causing an increase in AUC and Cmax. […] Thus there is a risk of overdosing subjects with moderate hepatic impairment, which can be mitigated by reducing the IV iclaprim dose by about 50%.

[4] = exposure to iclaprim in Phase I studies; settings: human, in vivo
[5] = system: nosocomial pneumonia suspected or confirmed to be caused by Gram-positive pathogens; test: Phase 2 study in nosocomial pneumonia, iclaprim versus vancomycin; type: in vivo, human
Text: This MIC effect of surfactant on daptomycin activity has been reported to be mediated by binding of surfactant components to specific structures present on antibiotics, such as the lipophilic side-chain of daptomycin (Silverman et al., 2005). […] Collectively, the current in vitro study and a previous Phase 2 study support that iclaprim could be a potential treatment for pneumonia, including nosocomial pneumonia caused by susceptible and multidrug resistant Gram-positive bacteria.

[6] = system: QTc interval; settings: human, in vivo
Procedure: A second single-dose ECG study was conducted on healthy human volunteers using weight-based doses of 0.4 mg/kg and 0.8 mg/kg iclaprim base infused over 30 minutes and 1.6 mg/kg infused over 60 minutes.

## COc1cc(Cc2cnc(N)nc2N)c2c(c1OC)OC(C1CC1)C=C2 (racemic) [Iclaprim]
[1]
  concentration at which action potential duration was increased: above 1 μM
[2]
  QTc prolongation: > 60 ms
[3]
  increase in AUC: 2.5 fold
  increase in Cmax: 1.4 fold
[4]; 1 mg/kg
  AUC: 2,575 ± 757 hr × ng/mL
[4]; 4 mg/kg
  AUC: 8,894 [29.0] hr × ng/mL
  Cmax: 2,851 [19.2] ng/mL
[5]; iclaprim 0.8 mg/kg IV q12h, test of cure visit (17 of 23)
  cure rate, intent-to-treat population: 73.9%
[5]; iclaprim 1.6 mg/kg IV q8h, test of cure visit (15 of 24)
  cure rate, intent-to-treat population: 62.5%
[5]; iclaprim q8h (3 of 24)
  death rate within 28 days of the start of treatment: 12.5%
[5]; iclaprim q12h (2 of 23)
  death rate within 28 days of the start of treatment: 8.7%
[6]
  post-infusion QTcF prolongation from baseline (no subject above): ≤ 60 ms
